# Target: Angiotensin-converting enzyme (ACE1)
# Assay: Concentration required for 50% inhibition of Angiotensin I converting enzyme
row,Structure (SMILES),IC50 [µM]
1,CCCC(C(=O)O)N1CCCC(CSC(C)=O)C1=O (configuration not stated) [2-(3-Acetylsulfanylmethyl-2-oxo-piperidin-1-yl)-pentanoic acid],30
2,CC(=O)SCC1CCCN(C(C)C(=O)O)C1=O (configuration not stated) [2-(3-Acetylsulfanylmethyl-2-oxo-piperidin-1-yl)-propionic acid],35
3,CC(=O)SCC1CCCN(CC(=O)O)C1=O (configuration not stated) [(3-Acetylsulfanylmethyl-2-oxo-piperidin-1-yl)-acetic acid],100

# The remaining lines, values ahead:
row,IC50 [µM],Structure (SMILES)
1,19,CC(=O)SCC1CCCN(C(C(=O)O)c2ccccc2)C1=O (configuration not stated) [(3-Acetylsulfanylmethyl-2-oxo-piperidin-1-yl)-phenyl-acetic acid]
2,33,CC(=O)SCC1CCN(CC(=O)O)C1=O (configuration not stated) [(3-Acetylsulfanylmethyl-2-oxo-pyrrolidin-1-yl)-acetic acid]
3,3.7,O=C(O)CN1CCC(CS)C1=O (configuration not stated) [(3-Mercaptomethyl-2-oxo-pyrrolidin-1-yl)-acetic acid]
4,1,O=C(O)CN1CCCC(CS)C1=O (configuration not stated) [(3-Mercaptomethyl-2-oxo-piperidin-1-yl)-acetic acid]
